The values below come from patent US9182664B2, “Polymerizable fluorine-containing sulfonate, fluorine-containing sulfonate resin, resist composition and pattern-forming method using same” (Central Glass Company, Limited, priority 2010, dated 2015).

This data set can be described thus: Solubility of polymerizable fluorine-containing sulfonic acid onium salts (polymerizable monomers) in PGMEA. The class given is physicochemical. The text has this:
The structures and abbreviations of the polymerizable monomers used in this reference example are indicated below. Among others, the monomers PAG-1, PAG-2 and PAG-3 are the polymerizable fluorine-containing sulfonic acid onium salts according to the present invention. [table]

Setting [1] is: amount of polymerizable monomer in 100 g of PGMEA.

Molecules are shown by their SMILES. Like-named read-outs stand apart in the source and are kept apart here.

As for `C=C(C)C(=O)OC(OCC(F)(F)S(=O)(=O)O)(C(=O)OCC)C(F)(F)F` (centres unmarked) [PAG-1, Triphenylsulfonium 2-(1-Ethoxycarbonyl-1-methacryloyloxy-2,2,2-trifluoroethoxy)-1,1-difluoroethanesulfonate], the “Solubility (g/100 g)” value was found to be 45 g/100 g. Turning to `C=C(C)C(=O)OC(OCCC(F)(F)C(F)(F)S(=O)(=O)O)(C(=O)OCC)C(F)(F)F` (centres unmarked) [PAG-2, Triphenylsulfonium 4-(1-Ethoxycarbonyl-1-methacryloyloxy-2,2,2-trifluoroethoxy)-1,1,2,2-tetrafluorobutanesulfonate], the “Solubility (g/100 g)” value came to 55 g/100 g. On to `C=C(C)C(=O)OC(OCCCCC(F)(F)C(F)(F)S(=O)(=O)O)(C(=O)OCC)C(F)(F)F` (centres unmarked) [PAG-3, Triphenylsulfonium 6-(1-Ethoxycarbonyl-1-methacryloyloxy-2,2,2-trifluoroethoxy)-1,1,2,2-tetrafluorohexanesulfonate], for which the “Solubility (g/100 g)” value came to 90 g/100 g. Turning to `C=C(C)C(=O)OCC(F)(F)S(=O)(=O)O` [PAG-C1, reference compound], the “Solubility (g/100 g)” value under setting [1] amounted to 10 g/100 g. For `C=C(C)C(=O)OCC(=O)OCC(F)(F)S(=O)(=O)O` [PAG-C2, reference compound], the “Solubility (g/100 g)” value under setting [1] is 11 g/100 g.
